Data on three molecules can be found in patent US20140221499A1, “NOVEL RODENT CONTROL AGENTS AND USES THEREOF” (priority 2011, published 2014).

Format in all cases: cell-based
One assay concerns olfactory TAARs. Briefly: TAAR reporter gene assay, panel of mouse and rat TAARs in HEK293 cells. The following applies: for TAAR activation: mouse and rat TAARs. An excerpt: (§1) Here, we set out to identify agonists for additional mouse and rat TAARs. We examined odor response profiles using a previously established reporter gene assay based on cAMP-dependent odor transduction in olfactory sensory neurons (40, 42). Briefly, TAAR plasmids were transfected into HEK293 cells along with a cAMP-dependent reporter gene encoding secreted alkaline phosphatase (CRE-SEAP). TAARs were expressed both in unmodified form and as fusion proteins with an N-terminal sequence of bovine rhodopsin (‘Rho tag’) that promotes cell surface expression of some chemosensory receptors (35). Transfected cells were incubated with test chemicals, and phosphatase activity was quantified with a fluorescent substrate as a reporter for TAAR activation. In initial experiments, we tested 38 different odorant mixtures containing 244 structurally diverse test chemicals (2-5 μM) for the ability to activate each mTAAR. Subsequently, we tested 73 amines that included known mTAAR agonists and related chemicals for the ability to activate each rTAAR.
TAAR functional assays. Full Taar coding regions were cloned into pcDNA3.1-(Invitrogen) with or without a 5′ DNA extension of 69 bp encoding the first 20 amino acids of bovine rhodopsin followed by a cloning linker ([…]). Point mutations were introduced in mTAAR7e and mTAAR7f by overlap extension PCR. Functional assays were performed as described (40, 42). Fluorescence was measured on an EnVision plate reader (Perkin Elmer) and SEAP activity graphed as relative fluorescence of a phosphatase substrate.
(Reporter assays use an easily measured gene product as a stand-in for the process of interest.)

Another assay concerns the target T1, mTAAR7e (Mus musculus, UniProt Q5QD09).
T1 construct: Full Taar coding regions were cloned into pcDNA3.1-(Invitrogen); Rho tag (first 20 aa of bovine rhodopsin + linker); expressed in transfected cells; host or cells: HEK293
T1 sequence (Q5QD09 1-358): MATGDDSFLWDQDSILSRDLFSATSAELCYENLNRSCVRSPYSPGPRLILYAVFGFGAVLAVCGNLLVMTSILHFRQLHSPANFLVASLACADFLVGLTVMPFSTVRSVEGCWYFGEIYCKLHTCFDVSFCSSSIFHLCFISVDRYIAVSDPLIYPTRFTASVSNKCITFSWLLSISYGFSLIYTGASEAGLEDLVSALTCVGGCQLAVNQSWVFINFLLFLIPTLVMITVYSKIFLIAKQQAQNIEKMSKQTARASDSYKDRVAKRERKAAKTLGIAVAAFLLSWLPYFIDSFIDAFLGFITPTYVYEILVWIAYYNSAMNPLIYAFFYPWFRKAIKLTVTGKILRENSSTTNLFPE
The assay is described as follows: TAAR reporter gene assay, mTAAR7e.
Source text: as §1
(§2) TAAR functional assays. […] Fluorescence was measured on an EnVision plate reader (Perkin Elmer) and SEAP activity graphed as relative fluorescence of a phosphatase substrate.

In the next assay the target is T2, rTAAR7b (Rattus norvegicus, UniProt Q923X8).
T2 sequence (Q923X8 1-358): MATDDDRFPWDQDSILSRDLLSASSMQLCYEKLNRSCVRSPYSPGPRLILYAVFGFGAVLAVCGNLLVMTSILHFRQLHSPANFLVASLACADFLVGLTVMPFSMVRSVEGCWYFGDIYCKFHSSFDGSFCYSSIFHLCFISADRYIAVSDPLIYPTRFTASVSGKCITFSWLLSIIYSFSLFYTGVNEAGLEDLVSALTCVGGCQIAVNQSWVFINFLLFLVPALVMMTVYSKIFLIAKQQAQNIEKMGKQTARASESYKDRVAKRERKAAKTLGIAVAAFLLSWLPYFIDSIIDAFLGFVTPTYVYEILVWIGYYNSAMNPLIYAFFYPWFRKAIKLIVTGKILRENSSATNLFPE
Briefly: TAAR reporter gene assay, rTAAR7b. The arrangement: Full Taar coding regions were cloned into pcDNA3.1-(Invitrogen); expressed in transfected cells; host or cells: HEK293.
Source text: as §1, §2

Another assay concerns the target T3, rTAAR7h (Rattus norvegicus, UniProt Q923Y4).
T3 sequence (Q923Y4 1-358): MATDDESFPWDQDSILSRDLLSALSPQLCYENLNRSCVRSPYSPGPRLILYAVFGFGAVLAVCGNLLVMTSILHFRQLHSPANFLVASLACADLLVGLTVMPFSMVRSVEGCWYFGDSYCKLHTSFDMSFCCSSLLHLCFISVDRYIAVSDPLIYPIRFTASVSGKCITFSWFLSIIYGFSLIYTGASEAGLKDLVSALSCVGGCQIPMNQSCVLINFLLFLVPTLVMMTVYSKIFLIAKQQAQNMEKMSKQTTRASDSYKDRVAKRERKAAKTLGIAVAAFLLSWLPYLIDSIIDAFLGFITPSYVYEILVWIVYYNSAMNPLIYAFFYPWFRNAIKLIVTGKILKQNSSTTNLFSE
Briefly: TAAR reporter gene assay, rTAAR7h. More on the design: Full Taar coding regions were cloned into pcDNA3.1-(Invitrogen); Rho tag (first 20 aa of bovine rhodopsin + linker); expressed in transfected cells; host or cells: HEK293.
Source text: as §1, §2

A further assay deals with T4, mTAAR7b (Mus musculus, UniProt Q5QD11).
T4 sequence (Q5QD11 1-358): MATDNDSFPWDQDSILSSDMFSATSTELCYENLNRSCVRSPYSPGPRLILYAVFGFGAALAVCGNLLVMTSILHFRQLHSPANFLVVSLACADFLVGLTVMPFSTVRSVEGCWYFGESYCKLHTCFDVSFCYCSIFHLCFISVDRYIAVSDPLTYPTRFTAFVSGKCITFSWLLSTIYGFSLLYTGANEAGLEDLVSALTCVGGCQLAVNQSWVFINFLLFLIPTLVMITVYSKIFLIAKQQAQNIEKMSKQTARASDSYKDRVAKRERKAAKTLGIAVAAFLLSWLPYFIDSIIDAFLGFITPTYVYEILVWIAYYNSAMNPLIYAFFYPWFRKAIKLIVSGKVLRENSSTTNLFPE
The assay is described as follows: TAAR reporter gene assay, mTAAR7b. The arrangement: Full Taar coding regions were cloned into pcDNA3.1-(Invitrogen); Rho tag (first 20 aa of bovine rhodopsin + linker); expressed in transfected cells; host or cells: HEK293.
Source text: as §1, §2

Molecules are shown by their SMILES.

`CN(C)C1CCCCC1` [ligand 10, N,N-dimethylcyclohexylamine]: the TAAR activation result in the assay on olfactory TAARs is on record as “activated different TAAR7 paralogs”. Moreover, the mTAAR7e activation entry at mTAAR7e is given as “not”. Moreover, the rTAAR7b activation result on rTAAR7b is on record as “activated”. The rTAAR7h activation result on rTAAR7h is recorded as “not”. Besides, the mTAAR7b activation entry on mTAAR7b is “activated”.

For the molecule `CN(C)CCc1ccccc1` [ligand 6, N,N-dimethyl-2-phenylethylamine], the TAAR activation result in the assay with olfactory TAARs is “activated different TAAR7 paralogs”. The mTAAR7e activation entry at mTAAR7e is on record as “activated”. At rTAAR7b, the rTAAR7b activation result is listed as “not”. Besides, the rTAAR7h activation entry at rTAAR7h was “activated”. Further, the mTAAR7b activation entry on mTAAR7b is “not”.

Turning to `NCCc1ccccc1` [2-phenylethylamine], the “activation of other olfactory TAARs with identified ligands” value in the assay on olfactory TAARs (10 μM (FIG. 2D)) is given as “did not similarly activate”.
